# Source: patent publication US20100010078A1, “METHODS OF TREATING ANDROGEN DEPENDENT PROSTATE CANCER BY ADMINISTERING AN ACTIVE PHARMACEUTICAL INGREDIENT BEING FISETIN, 3,3',4',7-TETRAHYDROXYFLAVONE OR A DERIVATIVE THEREOF, IN AN ORAL, TRANSDERMAL OR TOPICAL DOSAGE FORM” (priority 2008, published 2010)
# Read-outs that look alike come from different tables or passages of the source.
# Legend:
# LNCaP cells [1] = assay: MTT cell viability assay, LNCaP cells; assay type: cell-based; details: Homo sapiens, read-out: decrease in cell viability; for cytotoxicity at 10 µM: fisetin 10 μM; for cytotoxicity at 20 µM: fisetin 20 μM; for cytotoxicity at 40 µM: fisetin 40 μM; for cytotoxicity at 60 µM: fisetin 60 μM
# Protocol: (§1) obtained from ATCC (Manassas, Va.). LNCaP cells were cultured in Dulbecco's Modified Eagle's medium supplemented with 5% heat-inactivated fetal bovine serum and 1% penicillin/streptomycin (P-S). CWR22Ru1 and PC-3 cells were grown in RPMI 1640 (Invitrogen) supplemented with 10% fetal bovine serum and 1% P-S. Human prostate epithelial cells (PrEC) were obtained from Cambrex Bioscience (Walkersville, Md.) and grown in prostate epithelial basal cell medium (Cambrex Bioscience) according to the manufacturer's instructions. The cells were maintained under standard cell culture conditions at 37° C. and 5% CO2 in a humid environment. Fisetin dissolved in dimethyl sulfoxide (final concentration 0.1% v/v) was used for the treatment of cells. The cells (60-70% confluent) were treated with fisetin (10-60 μM) for 24 and 48 h in complete growth medium.
# Cell viability. The effect of fisetin on the viability of cells was determined by 3-[4,5-dimethylthiazol-2-yl]-2,5-diphenyl tetrazoliumbromide assay. LNCaP, CWR22Ru1, PC-3 and PrEC cells were plated at 1×10^4 cells per well in 200 μl of complete culture medium containing 10-60 μM concentrations of fisetin in 96-well microtiter plates for 24 and 48 h. After incubation for specified times at 37° C. in a humidified incubator, 3-[4,5-dimethylthiazol-2-yl]-2,5-diphenyl tetrazoliumbromide (5 mg/ml in PBS) was added to each well and incubated for 2 h, after which the plate was centrifuged at 1,800×g for 5 min at 4° C. The absorbance was recorded on a microplate reader at the wavelength of 540 nm. The effect of fisetin on growth inhibition was assessed as percent cell viability where DMSO-treated cells were taken as 100% viable. DMSO at the concentrations used was without any effect on cell viability.
# PrEC cells = assay: MTT cell viability assay, normal prostate epithelial (PrEC) cells; assay type: cell-based, human; details: fisetin 10-60 μM
# Protocol: as §1
# Cell viability. The effect of fisetin on the viability of cells was determined by 3-[4,5-dimethylthiazol-2-yl]-2,5-diphenyl tetrazoliumbromide assay. […] The absorbance was recorded on a microplate reader at the wavelength of 540 nm. The effect of fisetin on growth inhibition was assessed as percent cell viability where DMSO-treated cells were taken as 100% viable. […]
# LNCaP cells [2] = assay: DNA cell cycle analysis by flow cytometry; assay type: cell-based, human; details: 48 h
# Protocol: DNA Cell Cycle Analysis. The LNCaP cells (50-60% confluent) were treated with fisetin (10-60 μM; 48 h) in complete medium. The cells were trypsinized thereafter, washed twice with cold PBS and centrifuged. The cell pellet was resuspended in 50 μl cold PBS to which cold methanol (450 μL) was added and the cells were incubated for 1 h at 4° C. The cells were centrifuged at 1,100 rpm for 5 minutes, pellet washed twice with cold PBS, suspended in 500 μl PBS and incubated with 5 μl RNase (20 μg/ml final concentration) for 30 min. The cells were chilled over ice for 10 min and incubated with propidium iodide (50 μg/ml final concentration) for 1 h for analysis by flow cytometry. Flow cytometry was performed with a FACScan (Becton Dickinson). A minimum of 10,000 cells per sample were collected and the DNA histograms were further analyzed by using ModiFitLT software (Verily Software House, Topsham, Me.) for cell cycle analysis.
# LNCaP cells [3] = assay: Apoptosis assessment by annexin-V staining; assay type: cell-based, human; details: fisetin 10-60 μM, 48 h
# Protocol: Apoptosis assessment by annexin-V staining. The Annexin-V-Fluos staining kit was used for the detection of apoptotic cells according to vendor's protocol. This kit uses a staining protocol in which the apoptotic cells are stained with annexin-V (green fluorescence). The LNCaP cells were grown to 70% confluency and treated with fisetin (10-60 μM) for 48 h. The fluorescence was measured by a Zeiss 410 confocal microscope (Thornwood, N.Y.). Confocal images of green annexin-FITC fluorescence were collected using 488 nm excitation light from an argon/krypton laser, a 560 nm dichroic mirror and a 514-540 nm bandpass barrier filter.
# Bak, Bcl-xL, Bad and Bid = assay: Western blot, Bak, Bad, Bid and Bcl-xL in LNCaP cells; assay type: cell-based, human; details: fisetin 10-60 μM, 48 h
# Protocol: (§2) Protein extraction and western blotting. Following the treatment of LNCaP cells with fisetin (10-60 μM; 48 h), the media was aspirated, the cells were washed with cold PBS (pH 7.4), and ice-cold lysis buffer (50 mM Tris-HCl, 150 mM NaCl, 1 mM EGTA, 1 mM EDTA, 20 mM NaF, 100 mM Na3VO4, 0.5% NP-40, 1% Triton X-100, 1 mM PMSF (pH 7.4)) with freshly added protease inhibitor cocktail (Protease Inhibitor Cocktail Set III, Calbiochem, La Jolla, Calif.) over ice for 30 min. The cells were scraped and the lysate was collected in a microfuge tube and passed through a needle to break up the cell aggregates. […]
# (§3) For western blotting, 30-50 μg protein was resolved over 8-12% polyacrylamide gels and transferred to a nitrocellulose membrane. The blot was blocked in blocking buffer (5% nonfat dry milk/1% Tween 20; in 20 mM TBS, pH 7.6) for 1 hr at room temperature, incubated with appropriate monoclonal or polyclonal primary antibody in blocking buffer for 1.5 h to overnight at 4° C., followed by incubation with anti-mouse or anti-rabbit secondary antibody horseradish peroxidase conjugate obtained from Amersham Life Science Inc. and detected by chemiluminescence and autoradiography using XAR-5 film obtained from Eastman Kodak Co. (Rochester, N.Y., USA). […]
# caspase-3, -8 and -9 = assay: Western blot, active caspase-3, -8 and -9 in LNCaP cells; assay type: cell-based, human; details: fisetin 10-60 μM, 48 h
# Protocol: as §2, §3
# caspase-3 and -7 = assay: Immunofluorescence staining for active caspase-3 and -7; assay type: cell-based, human; details: LNCaP, fisetin only 40 μM, 48 h
# Protocol: Immunofluorescence staining for active caspase-3 and -7. LNCaP cells were incubated with 40 μM concentration of the general caspase inhibitor Z-VAD-FMK for 2 h, followed by the addition of fisetin (40 μM; 48 h) and then harvested. ICT's Magic Red™ substrate-based MR-Caspase assay kit was used for the immunofluorescence staining for caspase-3 and -7. This kit utilizes the fluorophore, cresyl violet. As the 4 amino acid sequence, aspartylglutamylalanylaspartic acid (DEVD) is the optimal sequence for caspase -3 as well as -7, it was coupled to cresyl violet to create the caspase 3/7 substrate, MR-(DEVD)2. […] Following enzymatic hydrolysis at one or both of the aspartic acid amide linkage sites, the mono and non-substituted cresyl violet fluorophores fluoresce red and fluorescence photographs were obtained at 510-560 nm excitation and 610 nm emission.
smiles,measurement,setting,value
"O=c1c(O)c(-c2ccc(O)c(O)c2)oc2cc(O)ccc12 [fisetin, 3,3′,4′,7-tetrahydroxyflavone]",cytotoxicity at 10 µM,LNCaP cells [1]; 24 h,15%
same,cytotoxicity at 10 µM,LNCaP cells [1]; 48 h,19%
same,cytotoxicity at 20 µM,LNCaP cells [1]; 24 h,33%
same,cytotoxicity at 20 µM,LNCaP cells [1]; 48 h,40%
same,cytotoxicity at 40 µM,LNCaP cells [1]; 24 h,45%
same,cytotoxicity at 40 µM,LNCaP cells [1]; 48 h,49%
same,cytotoxicity at 60 µM,LNCaP cells [1]; 24 h,57%
same,cytotoxicity at 60 µM,LNCaP cells [1]; 48 h,62%
same,effect on cell viability,PrEC cells; 24 h,minimal effect
same,effect on cell viability,PrEC cells; 48 h,minimal effect
same,G1 phase cell cycle distribution,LNCaP cells [2]; fisetin 10 μM,61%
same,G1 phase cell cycle distribution,LNCaP cells [2]; fisetin 20 μM,63%
same,G1 phase cell cycle distribution,LNCaP cells [2]; fisetin 40 μM,67%
same,G1 phase cell cycle distribution,LNCaP cells [2]; fisetin 60 μM,69%
same,apoptotic cells by annexin-V staining,LNCaP cells [3],increased
same,Bcl-xL expression,"Bak, Bcl-xL, Bad and Bid",significant decrease
same,"protein expression of Bak, Bad and Bid","Bak, Bcl-xL, Bad and Bid",significant increase
same,"activation of caspase-3, -8 and -9","caspase-3, -8 and -9",dose-dependent increase
same,immunofluorescence staining of active caspase-3 & 7,caspase-3 and -7,intense staining
